# How the values were obtained:
# Add1327 = assay: GCV inhibition of vector replication in vitro, viral titer by TCID50 on 293 cells; format: cell-based; settings: A549 cells transduced with Add1327; 10 μM GCV for 5 days; repeated three times
# Protocol: (§1) FIG. 6. GCV Inhibition of Av5E1aTk01i Replication In Vitro. A549 cells were transduced with either Add1327 or Add1327Tk01i. Cells were then treated with 10 uM GCV for 5 days. Following the 5 day incubation, cells were harvested, washed in HBSS, and then freeze/thawed to prepare a crude viral lysate. Titers were then performed by standard TCID50 assays on 293 cells to determine viral titer. The experiment was repeated three times.
# (§2) HSV-TK was placed into the E3 region of Add1327 to form Av5E1aTK01i. A549 cells were transduced with either Add1327 or Av5E1aTK01i. Cells were then treated with 10 μM GCV for 5 days. Following the 5 day incubation cells were harvested, washed in HBSS, and then freeze/thawed to prepare a crude viral lysate. Titers were then performed by standard TCID^50 assays on 293 cells to determine viral titer. The experiment was repeated three times.
# Av5E1aTK01i [1] = assay: as above; format: cell-based; settings: A549 cells transduced with Av5E1aTK01i; 10 μM GCV for 5 days; repeated three times
# Protocol: as §1, §2
# Av5E1aTK01i [2] = assay: GCV inhibition of Av5E1aTk01i replication in vivo, immunohistochemistry of subcutaneous A549 tumors; parameters: species or system nude mice; settings: A549 tumors injected with 1×10^9 pfu Av5E1aTK01i; IP GCV 75 mg/kg once a day for 5 days
# Protocol: (§3) FIG. 7. GCV Inhibition of Av5E1aTk01i Replication In Vivo. Subcutaneous tumors were formed by injecting 1×10^7 A549 cells into the subcutaneous space of the right flank of nude mice. After tumors formed 1×10^9 pfu of Add1327Tk01i was injected into several animals containing tumors. After 5 days, half of the animals received 5 days of IP GCV treatment at 75 mg/kg once a day. At the end of this time frame all animals were sacrificed. Immunohistochemistry was performed on all samples for HSV-TK expression and hexon expression, the latter which is only expressed when the vector is replicating.
# as §3, with “Subcutaneous” for “FIG. 7. GCV Inhibition of Av5E1aTk01i Replication In Vivo. Subcutaneous”, “tumors formed,” for “tumors formed”, “of Av5E1aTK01i” for “of Add1327Tk01i”, “5 days” for “5 days,”, “half” for “half of”
smiles,measurement,setting,value
"Nc1nc(O)c2ncn(COC(CO)CO)c2n1 [GCV, ganciclovir]",effect on viral titer of an adenovirus not carrying the HSV-TK gene,Add1327,no effect
same,drop in titer of a vector carrying the HSV-TK gene,Av5E1aTK01i [1],greater than 4 order of magnitude
same,"hexon expression (only expressed when the vector is replicating), immunohistochemistry",Av5E1aTK01i [2],severely diminished

# — US6638762B1, “Tissue-vectors specific replication and gene expression” (priority 1994, dated 2003)
